Source: article PMC6983002, “Identification and Biological Evaluation of CK2 Allosteric Fragments through Structure-Based Virtual Screening” (Molecules, 2020)
Like-named read-outs stand apart in the source and are kept apart here.

Columns and labels:
[1] = biological target: CK2α (Homo sapiens, UniProt P68400); assay: ADP-Glo kinase assay, CK2 inhibition; format: biochemical; details: for inhibition at 256 µM: 256 μM compound; for inhibition at 1024 µM: 1024 μM compound, read-out: inhibition rate at 1024 μM
Sequence of CK2α (P68400 whole entry): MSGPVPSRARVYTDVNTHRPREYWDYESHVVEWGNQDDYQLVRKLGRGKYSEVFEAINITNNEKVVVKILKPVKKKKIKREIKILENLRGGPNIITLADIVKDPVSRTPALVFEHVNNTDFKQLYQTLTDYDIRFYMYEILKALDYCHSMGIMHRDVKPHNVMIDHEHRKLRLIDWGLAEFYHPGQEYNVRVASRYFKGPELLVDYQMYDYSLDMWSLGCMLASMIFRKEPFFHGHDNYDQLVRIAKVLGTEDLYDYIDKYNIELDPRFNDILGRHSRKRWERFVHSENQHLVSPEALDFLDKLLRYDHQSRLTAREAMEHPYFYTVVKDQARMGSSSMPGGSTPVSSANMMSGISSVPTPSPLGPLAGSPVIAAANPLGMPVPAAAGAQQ
Experimental: In vitro CK2 kinase inhibition assay were carried out for the six compounds using ADP-Glo^TM kinase assay. […] As indicated in Table 1 and Figure 5a, these compounds presented the inhibitory effect on CK2α activity to different extent. At the concentration of 16 μM, compound 3 inhibited nearly 50% of CK2α activity. However, at the same concentration, other compounds had only 20% inhibitory activity. Furthermore, except compound 2 and 6, the inhibition rates of these compounds were about 70% and 30% at 256 μM, respectively, with the dose-dependent manner. The ADP-Glo^TM Kinase Assay (Promega, Madison, WI, USA) was used to test the CK2 inhibition effects of these compounds [30, 31]. As indicated by the relevant studies, competitive and noncompetitive inhibitors show the increased and similar IC50 values with increasing concentrations of ATP, respectively. Therefore, we were able to distinguish between ATP competitive and noncompetitive inhibitors of CK2 by exploring whether the IC50 value of inhibitors will change or not at 10 and 100 μM ATP. The kinase reaction was performed in 25 μL mixture containing 10 ng casein kinase 2α, 0.1 µg/μL casein protein, 10 µM or 100 µM ATP, 1× reaction buffer and serially diluted fragments (or DMSO for control). After 60 min incubation at room temperature, 25 μL of ADP-Glo^TM Reagent was added to terminate the kinase reaction and deplete the remaining ATP. Then 50 μL Kinase Detection Reagent was added to convert ADP to ATP within 30 min, and allow the newly synthesized ATP to produce a luminescence signal using luciferase/luciferin reaction, which was recorded by the luminescence panel of Microplate Reader (Enspire2300-001A, Perkin Elmer, Waltham, MA, USA).The luminescent signal is proportional to the ADP concentration produced and correlated with the kinase activity.

[2] = system: A549 cancer cells; assay: CCK-8 cell proliferation assay, A549; format: cell-based; details: Homo sapiens, A549, 48 h treatment, read-out: IC50, inhibition of A549 cell proliferation
Experimental: With the aim of investigating the anti-cancer cell proliferative activity of the CK2 inhibitors, compound 3 and 4 was tested against human cancer cell lines based on Cell Counting Kit-8 (CCK-8) assay. […] We presumed that the functional uracil group of two compounds, which is also presented in the anti-cancer hits 5-fluorouracil, is essential and indispensable for anti-cancer activity.
Cell Counting Kit-8 (CCK-8 Dojindo Laboratories, Kyushu, Japan) assays was used to assess the cytotoxic activities of compound 3 and 4. A549 and HeLa cancer cells were seeded in 96-well flat-bottom culture plate at 2 × 10^4 cells/well and then cultured in an incubator of 5% CO2 and 37 °C for 24 h. After cells adherence, the cells were treated with targeted compounds at various concentrations for 48 h. Blank wells (containing culture medium only) and negative wells (untreated cells) served as controls. Following, 10 μL CCK-8 solutions was add to each well and incubated for 2 h at 37 °C, the absorbance was measured at 450 nm by using a microplate reader (Enspire 2300-001A, Perkin Elmer, Waltham, MA, USA).

[3] = concentration-response, 10 μM ATP where stated, read-out: IC50 against CK2α

inhibition at 16 µM ([1]; 16 μM compound) [%] | inhibition at 256 µM [1] [%] | IC50 [2] [µM] | %Inhibition at 16 μM ([1]; 16 μM compound, 16 µM) [%] | inhibition at 64 µM ([1]; 64 μM compound) [%] | IC50 ([1]; 100 μM ATP, read-out: IC50 against CK2α in the presence of 100 μM ATP) [µM] | mode of inhibition with respect to ATP ([1]; IC50 compared at 10 μM and 100 μM ATP) | IC50 [1, 3] [µM] | inhibition at 1024 µM [1] [%] | Structure (SMILES)
~50 | 72 | 23.1 | 52 | > 50 | 10.2 | non-ATP competitive | 13 | – | Cc1ccc(C(=O)Nc2c[nH]c(=O)[nH]c2=O)cc1C [Compound 3]
22 | 40 | 8.8 | – | – | – | – | ≤ 1020 | – | O=C(Cc1cccc2ccccc12)Nc1c[nH]c(=O)[nH]c1=O [Compound 4]

Continued, compound first:

Structure (SMILES) | inhibition at 16 µM ([1]; 16 μM compound) [%] | inhibition at 256 µM [1] [%] | IC50 [2] [µM] | %Inhibition at 16 μM ([1]; 16 μM compound, 16 µM) [%] | inhibition at 64 µM ([1]; 64 μM compound) [%] | IC50 ([1]; 100 μM ATP, read-out: IC50 against CK2α in the presence of 100 μM ATP) [µM] | mode of inhibition with respect to ATP ([1]; IC50 compared at 10 μM and 100 μM ATP) | IC50 [1, 3] [µM] | inhibition at 1024 µM [1] [%]
COc1ccc(C(=O)Nc2ccc(C(N)=O)cc2)cc1Br [Compound 1] | 14 | 27 | – | – | – | – | – | – | –
COc1ccc(C(=O)Nc2ccc3[nH]c(=O)[nH]c3c2)cc1Br [Compound 2] | 16 | 19 | – | – | – | – | – | – | –
Cc1c(Cl)cccc1NC(=O)CC1NCCNC1=O (stereo not shown) [Compound 5] | 16 | 29 | – | – | – | – | – | – | < 50
Nc1cc(=O)nc(SCc2ccccc2Cl)[nH]1 [Compound 6] | 12 | 18 | – | – | – | – | – | – | < 50
